This passage reports Ki results from patent EP0942911B1, “BENZOPYRANOPYRROLE AND BENZOPYRANOPYRIDINE ALPHA-1 ADRENERGIC COMPOUNDS” (Abbott Laboratories, priority 1996, dated 1998).

What all share (test): biochemical
Assay [1] deals with T1, α-1A adrenoreceptor (rat submaxillary gland) (Rattus norvegicus, UniProt P43140).
T1 sequence (P43140 1-466): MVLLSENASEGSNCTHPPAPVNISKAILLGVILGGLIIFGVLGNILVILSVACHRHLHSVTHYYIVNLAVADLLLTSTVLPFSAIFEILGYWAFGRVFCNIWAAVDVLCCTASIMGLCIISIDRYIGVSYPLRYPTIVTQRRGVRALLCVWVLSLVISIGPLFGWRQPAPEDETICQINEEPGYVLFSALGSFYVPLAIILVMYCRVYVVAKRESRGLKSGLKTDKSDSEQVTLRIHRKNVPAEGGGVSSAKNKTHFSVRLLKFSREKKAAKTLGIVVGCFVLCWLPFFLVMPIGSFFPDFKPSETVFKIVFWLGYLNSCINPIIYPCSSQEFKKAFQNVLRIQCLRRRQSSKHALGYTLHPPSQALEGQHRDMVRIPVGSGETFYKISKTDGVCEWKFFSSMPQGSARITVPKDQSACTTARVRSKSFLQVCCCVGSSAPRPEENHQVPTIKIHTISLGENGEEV
Format: binding. As to conditions: [3H]-prazosin radioligand; rat submaxillary gland membranes; read-out: Radioligand Binding (Ki, nM) 1A (Rat). An outline of the steps: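 Radioligand binding to α-1A sites in membrane homogenates of rat submaxillary gland, run after Greengrass and Bremner. Bound radioactivity counted by liquid scintillation.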

The target in another assay is T2, α-1a adrenoreceptor (Bos taurus, UniProt P18130).
T2 sequence (P18130 1-466): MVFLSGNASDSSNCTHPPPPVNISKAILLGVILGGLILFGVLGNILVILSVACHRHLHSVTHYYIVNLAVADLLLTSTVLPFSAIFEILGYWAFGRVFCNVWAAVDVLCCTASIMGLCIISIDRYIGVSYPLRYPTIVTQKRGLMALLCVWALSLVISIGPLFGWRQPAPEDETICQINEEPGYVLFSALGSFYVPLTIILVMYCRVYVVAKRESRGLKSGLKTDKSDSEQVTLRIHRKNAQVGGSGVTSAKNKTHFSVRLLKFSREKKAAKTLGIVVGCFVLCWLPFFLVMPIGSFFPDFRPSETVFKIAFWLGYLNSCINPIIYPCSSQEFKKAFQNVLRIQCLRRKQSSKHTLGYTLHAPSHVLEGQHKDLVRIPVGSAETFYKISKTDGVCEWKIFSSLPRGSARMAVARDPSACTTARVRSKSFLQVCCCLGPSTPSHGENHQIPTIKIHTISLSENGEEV
Format: binding, bovine. The following applies: [3H]-prazosin radioligand; cloned receptor in LTK cell membranes; read-out: Radioligand Binding (Ki, nM) 1a (Bovine). An outline of the steps:
(§1)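 LTK mouse fibroblasts stably transfected with α-1a, α-1b or α-1d cDNA → roller-bottle culture 5 days at 37 °C → membranes in 50 mM Tris-HCl, stored at -70 °C → radioligand binding → scintillation counting.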

For another assay, the target named is T3, α-1b adrenoreceptor (Mesocricetus auratus, UniProt P18841).
T3 sequence (P18841 1-515): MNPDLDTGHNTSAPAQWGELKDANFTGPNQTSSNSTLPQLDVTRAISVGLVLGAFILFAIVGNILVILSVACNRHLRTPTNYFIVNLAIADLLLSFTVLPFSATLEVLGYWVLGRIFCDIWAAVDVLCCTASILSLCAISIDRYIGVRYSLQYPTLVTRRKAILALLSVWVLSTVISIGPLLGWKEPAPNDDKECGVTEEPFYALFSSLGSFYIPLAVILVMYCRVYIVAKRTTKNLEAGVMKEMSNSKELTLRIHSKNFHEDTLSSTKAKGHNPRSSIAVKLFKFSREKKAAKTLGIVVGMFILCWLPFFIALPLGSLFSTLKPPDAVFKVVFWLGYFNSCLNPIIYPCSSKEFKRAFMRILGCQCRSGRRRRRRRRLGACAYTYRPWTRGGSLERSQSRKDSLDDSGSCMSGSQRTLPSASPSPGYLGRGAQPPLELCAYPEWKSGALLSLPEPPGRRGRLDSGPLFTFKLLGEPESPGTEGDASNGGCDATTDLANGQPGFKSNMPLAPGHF
In kind it is binding, hamster. The following applies: [3H]-prazosin radioligand; cloned receptor in LTK cell membranes; read-out: Radioligand Binding (Ki, nM) 1b (Hamster). An outline of the steps: as §1

Counter-ions that a name gives are not always drawn.

As usually defined, the Ki is a measure of affinity in units of concentration, obtained from inhibition or displacement. For the compound `COc1cccc2c1[C@H]1CN(CCCCn3c(=O)[nH]c4c(sc5cccnc54)c3=O)C[C@H]1CO2` [Example 2, 3-[4-((3aS,9bS)-cis-9-Methoxy-1,2,3,3a,4,9b-hexahydro-[1]-benzopyrano[3,4-c]pyrrol-2-yl)butyl]-pyrido[2',3':4,5]thieno[3,2-d]pyrimidine-2,4(1H,3H)-dione hydrochloride], the values for the Ki (in assay [1]; at α-1a adrenoreceptor; on α-1b adrenoreceptor) were 0.95 nM, 0.193 nM and 9.23 nM, respectively.

Regarding `COc1cccc2c1[C@@H]1CN(CCCCn3c(=O)[nH]c4c(sc5cccnc54)c3=O)C[C@H]1CO2` [Example 3, 3-[4-((3aS,9bR)-trans-9-Methoxy-1,2,3,3a,4,9b-hexahydro-[1]-benzopyrano[3,4-c]pyrrol-2-yl)butyl]-pyrido[2',3':4,5]thieno[3,2-d]pyrimidine-2,4(1H,3H)-dione hydrochloride], the Ki in assay [1] was 0.026 nM; on α-1a adrenoreceptor, 0.02 nM; on α-1b adrenoreceptor it was 0.286 nM.

For `COc1cccc2c1[C@@H]1CN(CCCCn3c(=O)[nH]c4c(sc5ncc(Cl)nc54)c3=O)C[C@H]1CO2` [Example 13, 3-[4-((3aS,9bR)-trans-9-Methoxy-1,2,3,3a,4,9b-hexahydro-[1]-benzopyrano[3,4-c]pyrrol-2-yl)butyl]-8-chloro-pyrazino[2',3':4,5]thieno[3,2-d]pyrimidine-2,4(1H,3H)-dione hydrochloride], the values for the Ki (in assay [1]; on α-1a adrenoreceptor; at α-1b adrenoreceptor) were 0.1 nM, 0.041 nM and 2.49 nM, respectively.

Turning to `COc1cccc2c1[C@@H]1CN(CCCCn3c(=O)[nH]c4c(sc5c(OC)ccnc54)c3=O)C[C@H]1CO2` [Example 17, 3-[4-((3aS,9bR)-trans-9-Methoxy-1,2,3,3a,4,9b-hexahydro-[1]-benzopyrano[3,4-c]pyrrol-2-yl)butyl]-6-methoxy-pyrido[2',3':4,5]thieno[3,2-d]pyrimidine-2,4(1H,3H)-dione dihydrochloride], the Ki in assay [1] was 0.175 nM; on α-1a adrenoreceptor, 0.068 nM; on α-1b adrenoreceptor, 1.25 nM.

Turning to `COc1cccc2c1[C@@H]1CN(CCCCn3c(=O)[nH]c4c(sc5c(OC)ccnc54)c3=O)C[C@@H]1CO2` [Example 18, 3-[4-((3aR,9bR)-cis-9-Methoxy-1,2,3,3a,4,9b-hexahydro[1]-benzopyrano[3,4-c]pyrrol-2-yl)butyl]-6-methoxy-pyrido[2',3':4,5]thieno[3,2-d]pyrimidine-2,4(1H,3H)-dione dihydrochloride], the values for the Ki (in assay [1]; at α-1a adrenoreceptor; on α-1b adrenoreceptor) were 0.284 nM, 0.069 nM and 5.06 nM, respectively.

Regarding `COc1cccc2c1[C@@H]1CN(CCCCn3c(=O)[nH]c4c(sc5ccc(Cl)nc54)c3=O)C[C@H]1CO2` [Example 25, 3-[4-((3aS,9bR)-trans-9-Methoxy-1,2,3,3a,4,9b-hexahydro-[1]-benzopyrano[3,4-c]pyrrol-2-yl)butyl]-8-chloro-pyrido[2',3':4,5]thieno[3,2-d]pyrimidine-2,4(1H,3H)-dione dihydrochloride], the Ki in assay [1] came out at 0.061 nM; on α-1a adrenoreceptor, 0.03 nM; on α-1b adrenoreceptor it was 0.591 nM.

Turning to `COc1ccc2sc3c(=O)n(CCCCN4C[C@H]5COc6cccc(OC)c6[C@@H]5C4)c(=O)[nH]c3c2n1` [Example 26, 3-[4-((3aS,9bR)-trans-9-Methoxy-1,2,3,3a,4,9b-hexahydro-[1]-benzopyrano[3,4-c]pyrrol-2-yl)butyl]-8-methoxy-pyrido[2',3':4,5]thieno[3,2-d]pyrimidine-2,4(1H,3H)-dione hydrochloride], the Ki in assay [1] was 0.09 nM; on α-1a adrenoreceptor it was 0.022 nM; at α-1b adrenoreceptor, 0.376 nM.

As for `COc1cccc2c1[C@@H]1CN(CCCCn3c(=O)[nH]c4c(sc5ccncc54)c3=O)C[C@@H]1CO2` [Example 28, 3-[4-((3aR,9bR)-cis-9-Methoxy-1,2,3,3a,4,9b-hexahydro-[1]-benzopyrano[3,4-c]pyrrol-2-yl)butyl]-pyrido[3',4':4,5]thieno[3,2-d]pyrimidine-2,4(1H,3H)-dione dihydrochloride], the figures for the Ki (in assay [1]; on α-1a adrenoreceptor; on α-1b adrenoreceptor) were 0.273 nM, 0.092 nM and 3.69 nM, respectively.

`COc1cccc2c1[C@@H]1CN(CCCCn3c(=O)[nH]c4c(sc5cnccc54)c3=O)C[C@@H]1CO2` [Example 29, 3-[4-((3aR,9bR)-cis-9-Methoxy-1,2,3,3a,4,9b-hexahydro-[1]-benzopyrano[3,4-c]pyrrol-2-yl)butyl]-pyrido[4',3':4,5]thieno[3,2-d]pyrimidine-2,4(1H,3H)-dione dihydrochloride]: the results for the Ki (in assay [1]; at α-1a adrenoreceptor; on α-1b adrenoreceptor) were 0.252 nM, 0.095 nM and 3.69 nM, respectively.

For the compound `COc1ccc2sc3c(=O)n(CCCCN4C[C@@H]5COc6cccc(OC)c6[C@@H]5C4)c(=O)[nH]c3c2n1` [Example 30, 3-[4-((3aR,9bR)-cis-9-Methoxy-1,2,3,3a,4,9b-hexahydro-[1]-benzopyrano[3,4-c]pyrrol-2-yl)butyl]-8-methoxy-pyrido[2',3':4,5]thieno[3,2-d]pyrimidine-2,4(1H,3H)-dione hydrochloride], the Ki in assay [1] stood at 0.264 nM; on α-1a adrenoreceptor it was 0.066 nM; at α-1b adrenoreceptor, 2.67 nM.

In the case of `COc1cnc2sc3c(=O)n(CCCCN4C[C@@H]5COc6cccc(OC)c6[C@@H]5C4)c(=O)[nH]c3c2n1` [Example 31, 3-[4-((3aR,9bR)-cis-9-Methoxy-1,2,3,3a,4,9b-hexahydro-[1]-benzopyrano[3,4-c]pyrrol-2-yl)butyl]-8-methoxy-pyrazino[2',3':4,5]thieno[3,2-d]pyrimidine-2,4(1H,3H)-dione hydrochloride], the figures for the Ki (in assay [1]; on α-1a adrenoreceptor; on α-1b adrenoreceptor) were 0.224 nM, 0.06 nM and 4.79 nM, respectively.

Consider `COc1cccc2c1[C@@H]1CN(CCCCn3c(=O)[nH]c4c(sc5ncccc54)c3=O)C[C@@H]1CO2` [Example 34, 3-[4-((3aR,9bR)-cis-9-Methoxy-1,2,3,3a,4,9b-hexahydro-[1]-benzopyrano[3,4-c]pyrrol-2-yl)butyl]-pyrido[3',2':4,5]thieno[3,2-d]pyrimidine-2,4(1H,3H)-dione hydrochloride], for which the values for the Ki (in assay [1]; on α-1a adrenoreceptor; at α-1b adrenoreceptor) were 0.474 nM, 0.079 nM and 3.37 nM, respectively.

Take `COc1cccc2c1[C@@H]1CN(CCCCn3c(=O)[nH]c4c(sc5nc(C)ccc54)c3=O)C[C@@H]1CO2` [Example 35, 3-[4-((3aR,9bR)-cis-9-Methoxy-1,2,3,3a,4,9b-hexahydro-[1]-benzopyrano[3,4-c]pyrrol-2-yl)butyl]-7-methyl-pyrido[3',2':4,5]thieno[3,2-d]pyrimidine-2,4(1H,3H)-dione hydrochloride]: the Ki in assay [1] was determined as 0.312 nM; at α-1a adrenoreceptor it was 0.057 nM; on α-1b adrenoreceptor it was 5.12 nM.

As to `COc1cccc2c1[C@@H]1CN(CCCCn3c(=O)[nH]c4c(sc5nccc(OC)c54)c3=O)C[C@@H]1CO2` [Example 36, 3-[4-((3aR,9bR)-cis-9-Methoxy-1,2,3,3a,4,9b-hexahydro-[1]-benzopyrano[3,4-c]pyrrol-2-yl)butyl]-9-methoxy-pyrido[3',2':4,5]thieno[3,2-d]pyrimidine-2,4(1H,3H)-dione hydrochloride], the Ki amounted to 0.539 nM in assay [1], 0.124 nM on α-1a adrenoreceptor and 2.85 nM on α-1b adrenoreceptor.
